Experimental data taken from patent US20220232831A1, “NOVEL NON-CODING HETEROCYCLIC AMINO ACIDS (NCHAA) AND THEIR USE AS HERBICIDES” (Fortephest Ltd., priority 2019, published 2022).

What was measured:
[1] = system: Romaine lettuce (Lactuca sativa L.) plants; test: Post-emergency herbicidal activity on Romaine lettuce plants; type: in vivo; settings: Romaine lettuce at stage 2 to 3 leaves; compound in 0.1% Silwet, up to 0.5%; visual evaluation vs control plants
In short: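 Plants at the 2 to 3 leaf stage were treated with compound in 0.1% aqueous Silwet at 0.0% (Control) to 0.5%, with 20 to 40 plants per test. Vigor, height and leaf color were scored 0 (dead) to 100 (healthy) at 7, 14 and 21 DAA, and aboveground wet weight was measured.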

[2] = system: Seeds of Lettuce R. (Super-Jericho); test: Filter paper bioassay with lettuce seeds (germination and early plant development); type: in vivo; settings: lettuce seeds on filter paper; 1, 0.1, 0.01, 0.001 mM; radicle and shoots assessed after 6 days
In short: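 Lettuce seeds (10 per plate) were placed on filter paper with 2.0 ml water or test material at 1, 0.1, 0.01 or 0.001 mM. Plates were kept dark for 48 h, then grown 4 days at 22° C under a 6/18 dark/light cycle. At day 6, radicle and shoot development was scored visually; MEC is the lowest concentration causing deviation from control.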

SMILES | post-emergency herbicidal activity (Activity Index: plant's development vs Control) [1] | Minimal Effective Concentration (MEC) as activity score, seeds germination & early plants development [2]
CCCOC(=O)C(N)Cc1ccnc(Br)c1 (stereo not shown) [Code 654] | Strong (From 25 to 50) | Strong (0.1 mM)
NC(Cc1c(F)cnc(Br)c1F)C(=O)O (stereo not shown) [Code 655] | Maximal (Less than 15) | Strong (0.1 mM)
CCCOC(=O)C(N)Cc1c(F)cnc(Br)c1F (stereo not shown) [Code 656] | Very Strong (From 15 to 25) | Strong (0.1 mM)
NC(CNS(=O)(=O)c1ccnc(Br)c1)C(=O)O (stereo not shown) [Code 657] | Weak (More than 75) | Weak (More than 1 mM)
CCCOC(=O)C(N)CNS(=O)(=O)c1ccnc(Br)c1 (stereo not shown) [Code 658] | Weak (More than 75) | Weak (More than 1 mM)
CCOC(=O)C(N)Cc1cnc(Br)c(Br)c1 (stereo not shown) [Code 661] | Moderate (From 50 to 75) | Maximal (0.01 mM and less)
CCOC(=O)C(N)Cc1ccnc(Br)c1Br (stereo not shown) [Code 662] | Moderate (From 50 to 75) | Strong (0.1 mM)
NC(Cc1cc(C(F)(F)F)cnc1Cl)C(=O)O (stereo not shown) [Code 663] | Moderate (From 50 to 75) | Strong (0.1 mM)
Nc1ncc(CC(N)C(=O)O)c(=O)[nH]1 (stereo not shown) [Code 664] | Weak (More than 75) | Moderate (1 mM)
NC(Cc1cnc(O)c([N+](=O)[O-])c1)C(=O)O (stereo not shown) [Code 665] | Weak (More than 75) | Moderate (1 mM)
COC(=O)C(N)Cc1ccnc(Br)c1 (stereo not shown) [Code 666] | Maximal (Less than 15) | Strong (0.1 mM)
C[n+]1cccc(CC(N)C(=O)O)c1 (stereo not shown) [Code 667] | Weak (More than 75) | Weak (More than 1 mM)
NC(Cc1ccc[n+](O)c1)C(=O)O (stereo not shown) [Code 668] | Weak (More than 75) | Weak (More than 1 mM)
Cc1nc(N)c(CC(N)C(=O)O)c(O)n1 (stereo not shown) [Code 669] | Weak (More than 75) | Weak (More than 1 mM)
COC(=O)C(N)Cc1cc(Br)nc(Br)c1 (stereo not shown) [Code 670] | Very Strong (From 15 to 25) | Strong (0.1 mM)
CCOC(=O)C(Cc1ccc(Br)nc1)NC(C)=O (stereo not shown) [Code 671] | Weak (More than 75) | Strong (0.1 mM)
COC(=O)C(Cc1ccc(Br)nc1)NC(C)=O (stereo not shown) [Code 672] | Moderate (From 50 to 75) | Strong (0.1 mM)
